Tests used:
BACE-1 [1] = molecular target: T1, BACE-1 (Homo sapiens, UniProt P56817); test: BACE-1 enzyme assay; type: biochemical
BACE-1 [2] = molecular target: T1, BACE-1; test: BACE-1 cell assay; conditions: HEK293, read-out: percent inhibition of BACE-1 in cell-based assay

T1 sequence (P56817 46-501): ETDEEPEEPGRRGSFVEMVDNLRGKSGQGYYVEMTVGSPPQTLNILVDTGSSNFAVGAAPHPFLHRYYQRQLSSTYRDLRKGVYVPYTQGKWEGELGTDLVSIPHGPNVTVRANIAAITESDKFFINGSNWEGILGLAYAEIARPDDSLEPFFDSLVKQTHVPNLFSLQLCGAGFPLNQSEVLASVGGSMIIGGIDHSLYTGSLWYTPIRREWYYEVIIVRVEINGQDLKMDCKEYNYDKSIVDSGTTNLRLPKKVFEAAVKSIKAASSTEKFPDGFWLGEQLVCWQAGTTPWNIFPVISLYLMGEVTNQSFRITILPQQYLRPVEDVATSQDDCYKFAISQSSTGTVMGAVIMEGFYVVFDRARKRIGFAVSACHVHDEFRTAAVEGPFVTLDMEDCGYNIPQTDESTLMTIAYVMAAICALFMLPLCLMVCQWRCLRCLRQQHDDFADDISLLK

IC50 (BACE-1 [1]) [nM] | inhibition at 1 µM (BACE-1 [2]) [%] | Compound
> 10000 | – | CO[C@H](C[C@H](O)[C@@H](N)COc1cccc(OCc2ccccc2)c1)C(=O)N[C@H](C(=O)NCc1ccccc1)C(C)C [Compound 17, (2R,4S,5S)-5-Amino-6-(3-benzyloxy-phenoxy)-4-hydroxy-2-methoxy-hexanoic acid ((S)-1-benzylcarbamoyl-2-methyl-propyl)-amide]
4600 | – | CO[C@H](C[C@H](O)[C@H](COc1ccc(OCc2ccccc2)cc1)NC(=O)c1cccc(N(C)S(C)(=O)=O)c1)C(=O)N[C@H](C(=O)NCc1ccccc1)C(C)C [Compound 19, N-[(1S,2S,4R)-4-((S)-1-Benzylcarbamoyl-2-methyl-propylcarbamoyl)-1-(4-benzyloxy-phenoxymethyl)-2-hydroxy-4-methoxy-butyl]-3-(methanesulfonyl-methyl-amino)-benzamide]
2700 | – | COCCCOc1cc(OC[C@H](N)[C@@H](O)C[C@@H](OC)C(=O)N[C@H](C(=O)NCc2ccc(Cl)cc2)C(C)C)ccc1-c1ccc(F)cc1 [Compound 20, (2R,4S,5S)-5-Amino-6-[4'-fluoro-2-(3-methoxy-propoxy)-biphenyl-4-yloxy]-4-hydroxy-2-methoxy-hexanoic acid [(S)-1-(4-chloro-benzylcarbamoyl)-2-methyl-propyl]-amide]
> 10000 | – | CC[C@H](C)[C@H](NC(=O)[C@@H](C[C@H](O)[C@@H](N)COc1ccc(-c2ccc(F)cc2)cc1)OC)C(=O)NCc1ccc(Cl)cc1 [Compound 23, (2R,4S,5S)-5-Amino-6-(4'-fluoro-biphenyl-4-yloxy)-4-hydroxy-2-methoxy-hexanoic acid [(1S,2S)-1-(4-chloro-benzylcarbamoyl)-2-methyl-butyl]-amide]
69 | 3 | CC[C@H](C)[C@H](NC(=O)[C@@H](C[C@H](O)[C@H](COc1ccc(-c2ccccc2)c(OCCCOC)c1)NC(=O)c1cc(C(=O)N[C@H](C)c2ccccc2)cc(N(C)S(C)(=O)=O)c1)OC)C(=O)NCc1ccc(Cl)cc1 [Compound 25, N-{(1S,2S,4R)-4-[(1S,2S)-1-(4-Chloro-benzylcarbamoyl)-2-methyl-butylcarbamoyl]-2-hydroxy-4-methoxy-1-[2-(3-methoxypropoxy)-biphenyl-4-yloxymethyl]-butyl}-5-(methanesulfonyl-methyl-amino)-N'-((R)-1-phenyl-ethyl)-isophthalamide]
300 | 14 | CC[C@H](C)[C@@H](CNc1ccc(Cl)cc1)NC(=O)[C@H](Cc1ccccc1)C[C@H](O)[C@@H](N)COc1ccc(-c2ccc(F)cc2)c(OCCCOC)c1 [Compound 28, (2R,4S,5S)-5-amino-2-benzyl-N-((2S,3S)-1-(4-chlorophenylamino)-3-methylpentan-2-yl)-6-(4'-fluoro-2-(3-methoxypropoxy)biphenyl-4-yloxy)-4-hydroxyhexanamide]
540 | 28 | CC[C@H](C)[C@@H](CNc1ccc(Cl)cc1)NC(=O)[C@@H](C[C@H](O)[C@@H](N)COc1ccc(-c2ccc(F)cc2)c(OCCCOC)c1)C(C)C [Compound 30, (2S,4S,5S)-5-amino-N-((2S,3S)-1-(4-chlorophenylamino)-3-methylpentan-2-yl)-6-(4'-fluoro-2-(3-methoxypropoxy)bi-phenyl-4-yloxy)-4-hydroxy-2-isopropylhexanamide]

— paper PMC3617544 (The Open Medicinal Chemistry Journal, 2013)
